# Data taken from patent US20200022370A1, “MICROBIOCIDAL OXADIAZOLE DERIVATIVES” (SYNGENTA PARTICIPATIONS AG, priority 2016, published 2020).
# Tests used:
# [1] = test system: Phakopsora pachyrhizi; experiment: Phakopsora pachyrhizi / soybean / leaf disc preventative (Asian soybean rust); format: in vivo; conditions: foliar, 200 ppm in the applied formulation, soybean leaf disks, inoculated one day after application, vs untreated, 12 to 14 days after application, read-out: disease control
# Summary of the method: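 Soybean leaf discs on water agar sprayed with formulated compound diluted in water, then inoculated one day later with spore suspension on the lower surface. Held 24-36 h dark at 20 °C, 75% rh, then 12 h light/day; percent disease control versus untreated scored 12-14 days after application.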
# [2] = test system: Glomerella lacenarium (Colletotrichum lacenarium); experiment: Glomerella lacenarium (Colletotrichum lacenarium) liquid culture / cucumber / preventative (anthracnose); format: cell-based; conditions: 20 ppm, liquid culture in PDB, 24° C., inhibition of growth measured photometrically 3 to 4 days after application, vs untreated, read-out: disease control
# Summary of the method: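 Cryopreserved conidia in potato dextrose broth were added to test compound in a 96-well microtiter plate and incubated at 24 °C. Growth inhibition read photometrically 3–4 days after application, as percent activity versus untreated check.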
# [3] = test system: Uromyces viciae-fabae; experiment: Uromyces viciae-fabae / field bean / leaf disc preventative (faba-bean rust); format: in vivo; conditions: foliar, 288 h, 100 ppm in the applied formulation, field bean leaf discs, inoculated two hours after application, vs untreated, 12 days after application, read-out: disease control
# Summary of the method: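 Field bean leaf discs on water agar received formulated compound (in acetone with spreader), then were spray-inoculated with spores on the lower surface 2 h later. Discs were kept at 22 °C, 18 h day, 70% RH. Percent disease control versus untreated discs was scored 12 days after application.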
# [4] = test system: Puccinia recondita f. Sp. Tritici; experiment: Puccinia recondita f. sp. tritici / wheat / leaf disc preventative (brown rust); format: in vivo; conditions: foliar, 200 ppm in the applied formulation, wheat leaf segments cv. Kanzler, inoculated 1 day after application, vs untreated, 7 to 9 days after application, read-out: disease control
# Summary of the method: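 Segments of cv. Kanzler wheat on agar received a spray of compound formulation diluted in water and were inoculated with spores one day afterwards. Kept at 19° C and 75% rh under 12 h/12 h light; disease control relative to untreated checks rated at 7–9 days post-application.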
# [5] = test system: Puccinia recondita f. Sp. Tritici; experiment: Puccinia recondita f. sp. tritici / wheat / leaf disc curative (brown rust); format: in vivo; conditions: foliar, 200 ppm in the applied formulation, wheat leaf segments cv. Kanzler, compound applied 1 day after inoculation, vs untreated, 6 to 8 days after application, read-out: disease control
# Summary of the method: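 Wheat leaf segments (cv. Kanzler) on agar inoculated with brown rust spores, held dark at 19 °C/75% RH, then sprayed 1 day post-inoculation with formulated compound diluted in water (curative). Incubated at 19 °C/75% RH, 12 h light/12 h dark; percent disease control versus untreated scored 6–8 days after application.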
Structure (SMILES),melting point [°C],pest or weed control at 200 ppm [1] [%],inhibition of growth at 20 ppm [2] [%],pest or weed control at 100 ppm [3] [%],pest or weed control at 200 ppm [4] [%],pest or weed control at 200 ppm [5] [%]
"O=C(Nc1ccc(-c2noc(C(F)(F)F)n2)cc1)c1ccccc1C(F)(F)F [Compound 1.1, 2-(trifluoromethyl)-N-[4-[5-(trifluoromethyl)-1,2,4-oxadiazol-3-yl]phenyl]benzamide]",162 to 163,≥ 80,≥ 80,≥ 80,,
"O=C(Nc1ccc(-c2noc(C(F)(F)F)n2)cc1)C1CCCO1 (stereo not shown) [Compound 1.41, N-[4-[5-(trifluoromethyl)-1,2,4-oxadiazol-3-yl]phenyl] tetrahydrofuran-2-carboxamide]",115 to 120,≥ 80,≥ 80,≥ 80,≥ 80,≥ 80
"O=C(Nc1ccc(-c2noc(C(F)(F)F)n2)cn1)c1ccccc1 [Compound 1.46, N-[5-[5-(trifluoromethyl)-1,2,4-oxadiazol-3-yl]-2-pyridyl]benzamide]",172.8 to 174.3,≥ 80,,≥ 80,,
"CC(C)(C)NC(=O)CN(C(=O)C1CC1)c1ccc(-c2noc(C(F)(F)F)n2)cc1 [Compound 1.60, N-[2-(tert-butylamino)-2-oxo-ethyl]-N-[4-[5-(trifluoromethyl)-1,2,4-oxadiazol-3-yl]phenyl]cyclopro-panecarboxamide]",110 to 112,,≥ 80,≥ 80,,

# The next lines start with results.
melting point [°C],Structure (SMILES),pest or weed control at 200 ppm [1] [%],inhibition of growth at 20 ppm [2] [%],pest or weed control at 100 ppm [3] [%],pest or weed control at 200 ppm [4] [%],pest or weed control at 200 ppm [5] [%]
93 to 94,"COCC(=O)Nc1ccc(-c2noc(C(F)(F)F)n2)cc1 [Compound 2.1, 2-methoxy-N-[4-[5-(trifluoromethyl)-1,2,4-oxadiazol-3-yl]phenyl]acetamide]",≥ 80,≥ 80,≥ 80,≥ 80,≥ 80
146 to 147,"O=C(Nc1ccc(-c2noc(C(F)(F)F)n2)cc1)C(F)(F)F [Compound 2.2, 2,2,2-trifluoro-N-[4-[5-(trifluoromethyl)-1,2,4-oxadiazol-3-yl]phenyl]acetamide]",,≥ 80,≥ 80,,
124 to 127,"C=CCONC(=O)Nc1ccc(-c2noc(C(F)(F)F)n2)cc1 [Compound 2.3, 1-allyloxy-3-[4-[5-(trifluoromethyl)-1,2,4-oxadiazol-3-yl]phenyl]urea]",≥ 80,≥ 80,≥ 80,≥ 80,≥ 80
